{"source": "patent US8017612B2", "about": "“Piperazine compound and use thereof as a HCV polymerase inhibitor” (priority 2006, dated 2011)", "key": {"[1]": {"biological_target": "T1, HCV polymerase (NS5B) type 1a (Hepatitis C virus genotype 1a, UniProt P26664)", "T1 construct": "made in house; host or cells: Escherichia coli (by the 'similar method' of the 1b enzyme)", "test": "Assay of enzyme (HCV polymerase) inhibitory activity, type 1a enzyme", "assay_type": "biochemical, HCV type 1a (cloned from the blood of patients)", "conditions": "HCV polymerase inhibitory activity (IC50), 1a, type 1a enzyme 1.5 μg/ml, 25° C., 60 min", "procedure,_shortened": "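His-tagged NS5B, C-terminal 47 residues deleted, type 1a at 1.5 μg/ml, with 5 μg/ml HCV 3′UTR substrate RNA, 50 μM ATP/GTP/CTP, 2 μM UTP plus [3H]UTP, pH 7.5 Tris, 5 mM MgCl2; 60 min at 25° C. TCA-precipitated RNA counted by scintillation; IC50 from radioactivity with vs. without compound.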"}, "[2]": {"biological_target": "T2, HCV polymerase (NS5B) type 1b (Hepatitis C virus genotype 1b, UniProt P26663)", "T2 construct": "a region encoding NS5B (J Virol 1991 March, 65(3), 1105-13, 544 amino acids after deletion of 47 amino acids on the C-terminal); 6xHis (C); made in house; host or cells: Escherichia coli", "test": "Assay of enzyme (HCV polymerase) inhibitory activity, type 1b enzyme", "assay_type": "biochemical, HCV BK strain (type 1b)", "conditions": "HCV polymerase inhibitory activity (IC50), 1b, type 1b enzyme 0.5 μg/ml, 25° C., 60 min", "procedure,_shortened": "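His-tagged, C-terminally truncated NS5B (BK strain, 1b; 0.5 μg/ml) incubated with compound 60 min at 25 °C on 3′UTR-derived substrate RNA (5 μg/ml), 50 μM ATP/GTP/CTP, 2 μM UTP plus [3H]UTP, pH 7.5. Acid-precipitated RNA counted; IC50 from radioactivity with and without compound.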"}}}
{"smiles": "CCC(F)(F)c1ccc(CNC(=O)[C@H]2CN(c3nc(NC(C)=O)ns3)CCN2S(=O)(=O)c2ccc(OC(F)(F)F)cc2)cc1", "note": "[Example 596, (R)-4-(3-acetylamino-[1,2,4]thiadiazol-5-yl)-1-(4-trifluoromethoxy-benzenesulfonyl)-piperazine-2-carboxylic acid 4-(1,1-difluoro-propyl)-benzylamide]", "values": [{"measurement": "IC50", "setting": "[1]", "result": "< 100", "unit": "nM"}, {"measurement": "IC50", "setting": "[2]", "result": "< 100", "unit": "nM"}]}
{"smiles": "CC(C)(C)c1ccc(CNC(=O)[C@H]2CN(c3nc4cc[nH]c(=O)c4s3)CCN2S(=O)(=O)c2ccc(OC(F)(F)F)cc2)cc1", "note": "[Example 597, (R)-4-(4-oxo-4,5-dihydro-thiazolo[5,4-c]pyridin-2-yl)-1-(4-trifluoromethoxy-benzenesulfonyl)-piperazine-2-carboxylic acid 4-tert-butyl-benzylamide]", "values": [{"measurement": "IC50", "setting": "[1]", "result": "< 100", "unit": "nM"}, {"measurement": "IC50", "setting": "[2]", "result": "< 100", "unit": "nM"}]}
{"smiles": "CC(=O)N1CCN(S(=O)(=O)c2ccc(OC(F)(F)F)cc2)[C@@H](C(=O)NCc2ccc(-c3ccccn3)s2)C1", "note": "[Example 598, (R)-4-acetyl-1-(4-trifluoromethoxy-benzenesulfonyl)-piperazine-2-carboxylic acid (5-pyridin-2-yl-thiophen-2-ylmethyl)-amide]", "values": [{"measurement": "IC50", "setting": "[1]", "result": "100 to 1000", "unit": "nM"}, {"measurement": "IC50", "setting": "[2]", "result": "100 to 1000", "unit": "nM"}]}
{"smiles": "CC(=O)N1CCN(S(=O)(=O)c2ccc(OC(F)(F)F)cc2)[C@@H](C(=O)NCc2csc(-c3cccs3)n2)C1", "note": "[Example 599, (R)-4-acetyl-1-(4-trifluoromethoxy-benzenesulfonyl)-piperazine-2-carboxylic acid (2-thiophen-2-yl-thiazol-4-ylmethyl)-amide]", "values": [{"measurement": "IC50", "setting": "[1]", "result": "100 to 1000", "unit": "nM"}, {"measurement": "IC50", "setting": "[2]", "result": "> 1000", "unit": "nM"}]}
{"smiles": "CC(C)(C)c1ccc(CNC(=O)[C@H]2CN(c3nc4c(s3)CN(S(C)(=O)=O)CC4)CCN2S(=O)(=O)c2ccc(OC(F)(F)F)cc2)cc1", "note": "[Example 600, (R)-4-(5-methanesulfonyl-4,5,6,7-tetrahydro-thiazolo[5,4-c]pyridin-2-yl)-1-(4-trifluoromethoxy-benzenesulfonyl)-piperazine-2-carboxylic acid 4-tert-butyl-benzylamide]", "values": [{"measurement": "IC50", "setting": "[1]", "result": "< 100", "unit": "nM"}, {"measurement": "IC50", "setting": "[2]", "result": "< 100", "unit": "nM"}]}
{"smiles": "CCNC(=O)N1CCc2nc(N3CCN(S(=O)(=O)c4ccc(OC(F)(F)F)cc4)[C@@H](C(=O)NCc4ccc(C(C)(C)C)cc4)C3)sc2C1", "note": "[Example 601, 2-[(R)-3-(4-tert-butyl-benzylcarbamoyl)-4-(4-trifluoromethoxy-benzenesulfonyl)-piperazin-1-yl]-6,7-dihydro-4H-thiazolo[5,4-c]pyridine-5-carboxylic acid ethylamide]", "values": [{"measurement": "IC50", "setting": "[1]", "result": "< 100", "unit": "nM"}, {"measurement": "IC50", "setting": "[2]", "result": "< 100", "unit": "nM"}]}
{"smiles": "CC(C)(C)c1ccc(CNC(=O)[C@H]2CN(c3nc4nc[nH]c(=O)c4s3)CCN2S(=O)(=O)c2ccc(OC(F)(F)F)cc2)cc1", "note": "[Example 602, (R)-4-(7-oxo-6,7-dihydro-thiazolo[4,5-d]pyrimidin-2-yl)-1-(4-trifluoromethoxy-benzenesulfonyl)-piperazine-2-carboxylic acid 4-tert-butyl-benzylamide]", "values": [{"measurement": "IC50", "setting": "[1]", "result": "< 100", "unit": "nM"}, {"measurement": "IC50", "setting": "[2]", "result": "< 100", "unit": "nM"}]}
{"smiles": "CC(C)(C)c1ccc(CNC(=O)[C@H]2CN(c3nc(CO)c(C(=O)O)s3)CCN2S(=O)(=O)c2ccc(OC(F)(F)F)cc2)cc1", "note": "[Example 603, 2-[(R)-3-(4-tert-butyl-benzylcarbamoyl)-4-(4-trifluoromethoxy-benzenesulfonyl)-piperazin-1-yl]-4-hydroxymethyl-thiazole-5-carboxylic acid]", "values": [{"measurement": "IC50", "setting": "[1]", "result": "100 to 1000", "unit": "nM"}, {"measurement": "IC50", "setting": "[2]", "result": "100 to 1000", "unit": "nM"}]}
{"smiles": "CCC(F)(F)c1ccc(CNC(=O)[C@H]2CN(c3cnc(CO)c(N)n3)CCN2S(=O)(=O)c2ccc(OC(F)(F)F)cc2)cc1", "note": "[Example 604, (R)-6′-amino-5′-hydroxymethyl-4-(4-trifluoromethoxy-benzenesulfonyl)-3,4,5,6-tetrahydro-2H-[1,2′]bipyrazinyl-3-carboxylic acid 4-(1,1-difluoro-propyl)-benzylamide]", "values": [{"measurement": "IC50", "setting": "[1]", "result": "100 to 1000", "unit": "nM"}, {"measurement": "IC50", "setting": "[2]", "result": "< 100", "unit": "nM"}]}
{"smiles": "CCC(F)(F)c1ccc(CNC(=O)[C@H]2CN(c3cc(N)ncn3)CCN2S(=O)(=O)c2ccc(OC(F)(F)F)cc2)cc1", "note": "[Example 605, (R)-4-(6-amino-pyrimidin-4-yl)-1-(4-trifluoromethoxy-benzenesulfonyl)-piperazine-2-carboxylic acid 4-(1,1-difluoro-propyl)-benzylamide]", "values": [{"measurement": "IC50", "setting": "[1]", "result": "< 100", "unit": "nM"}, {"measurement": "IC50", "setting": "[2]", "result": "< 100", "unit": "nM"}]}
{"smiles": "COc1nsc(N2CCN(S(=O)(=O)c3ccc(OC(F)(F)F)cc3)[C@@H](C(=O)NCc3ccc(C(C)(C)C)cc3)C2)n1", "note": "[Example 606, (R)-4-(3-methoxy-[1,2,4]thiadiazol-5-yl)-1-(4-trifluoromethoxy-benzenesulfonyl)-piperazine-2-carboxylic acid 4-tert-butyl-benzylamide]", "values": [{"measurement": "IC50", "setting": "[1]", "result": "< 100", "unit": "nM"}, {"measurement": "IC50", "setting": "[2]", "result": "< 100", "unit": "nM"}]}
{"smiles": "CCC(F)(F)c1ccc(CNC(=O)[C@H]2CN(C(=O)Nc3cncs3)CCN2S(=O)(=O)c2ccc(OC(F)(F)F)cc2)cc1", "note": "[Example 607, (R)-4-(4-trifluoromethoxy-benzenesulfonyl)-piperazine-1,3-dicarboxylic acid 3-[4-(1,1-difluoro-propyl)-benzylamide] 1-thiazol-5-ylamide]", "values": [{"measurement": "IC50", "setting": "[1]", "result": "100 to 1000", "unit": "nM"}, {"measurement": "IC50", "setting": "[2]", "result": "100 to 1000", "unit": "nM"}]}
{"smiles": "COc1ccc(CNC(=O)[C@H]2CN(C(C)=O)CCN2S(=O)(=O)c2ccc(OC(F)(F)F)cc2)cc1", "note": "[Example 608, (R)-4-acetyl-1-(4-trifluoromethoxy-benzenesulfonyl)-piperazine-2-carboxylic acid 4-methoxy-benzylamide]", "values": [{"measurement": "IC50", "setting": "[1]", "result": "100 to 1000", "unit": "nM"}, {"measurement": "IC50", "setting": "[2]", "result": "100 to 1000", "unit": "nM"}]}
{"smiles": "CCC(F)(F)c1ccc(CNC(=O)[C@H]2CN(C(=O)C(C)C)CCN2S(=O)(=O)c2ccc(OC(F)(F)F)cc2)cc1", "note": "[Example 609, (R)-4-isobutyryl-1-(4-trifluoromethoxy-benzenesulfonyl)-piperazine-2-carboxylic acid 4-(1,1-difluoro-propyl)-benzylamide]", "values": [{"measurement": "IC50", "setting": "[1]", "result": "> 1000", "unit": "nM"}, {"measurement": "IC50", "setting": "[2]", "result": "100 to 1000", "unit": "nM"}]}
{"smiles": "CCC(F)(F)c1ccc(CNC(=O)[C@H]2CN(C(=O)C3CC3)CCN2S(=O)(=O)c2ccc(OC(F)(F)F)cc2)cc1", "note": "[Example 610, (R)-4-cyclopropanecarbonyl-1-(4-trifluoromethoxy-benzenesulfonyl)-piperazine-2-carboxylic acid 4-(1,1-difluoro-propyl)-benzylamide]", "values": [{"measurement": "IC50", "setting": "[1]", "result": "100 to 1000", "unit": "nM"}, {"measurement": "IC50", "setting": "[2]", "result": "100 to 1000", "unit": "nM"}]}
{"smiles": "CCC(F)(F)c1ccc(CNC(=O)[C@H]2CN(C(=O)C(C)(C)C)CCN2S(=O)(=O)c2ccc(OC(F)(F)F)cc2)cc1", "note": "[Example 611, (R)-4-(2,2-dimethyl-propionyl)-1-(4-trifluoromethoxy-benzenesulfonyl)-piperazine-2-carboxylic acid 4-(1,1-difluoro-propyl)-benzylamide]", "values": [{"measurement": "IC50", "setting": "[1]", "result": "> 1000", "unit": "nM"}, {"measurement": "IC50", "setting": "[2]", "result": "> 1000", "unit": "nM"}]}
{"smiles": "CCC(F)(F)c1ccc(CNC(=O)[C@H]2CN(C(=O)Nc3nc(C(C)(C)O)cs3)CCN2S(=O)(=O)c2ccc(OC(F)(F)F)cc2)cc1", "note": "[Example 612, (R)-4-(4-trifluoromethoxy-benzenesulfonyl)-piperazine-1,3-dicarboxylic acid 3-[4-(1,1-difluoro-propyl)-benzylamide] 1-{[4-(1-hydroxy-1-methyl-ethyl)-thiazol-2-yl]-amide}]", "values": [{"measurement": "IC50", "setting": "[1]", "result": "> 1000", "unit": "nM"}, {"measurement": "IC50", "setting": "[2]", "result": "100 to 1000", "unit": "nM"}]}
{"smiles": "CC(=O)N1CCN(S(=O)(=O)c2ccc(OC(F)(F)F)cc2)[C@@H](C(=O)NCc2ccc(O)cc2)C1", "note": "[Example 613, (R)-4-acetyl-1-(4-trifluoromethoxy-benzenesulfonyl)-piperazine-2-carboxylic acid 4-hydroxy-benzylamide]", "values": [{"measurement": "IC50", "setting": "[1]", "result": "> 1000", "unit": "nM"}, {"measurement": "IC50", "setting": "[2]", "result": "> 1000", "unit": "nM"}]}
{"smiles": "CC(=O)N1CCN(S(=O)(=O)c2ccc(OC(F)(F)F)cc2)[C@@H](C(=O)NCc2ccc(-c3ccccc3)s2)C1", "note": "[Example 614, (R)-4-acetyl-1-(4-trifluoromethoxy-benzenesulfonyl)-piperazine-2-carboxylic acid (5-phenyl-thiophen-2-ylmethyl)-amide]", "values": [{"measurement": "IC50", "setting": "[1]", "result": "100 to 1000", "unit": "nM"}, {"measurement": "IC50", "setting": "[2]", "result": "100 to 1000", "unit": "nM"}]}
{"smiles": "CCC(F)(F)c1ccc(CNC(=O)[C@H]2CN(c3cnc4cncnc4n3)CCN2S(=O)(=O)c2ccc(OC(F)(F)F)cc2)cc1", "note": "[Example 615, (R)-4-pteridin-7-yl-1-(4-trifluoromethoxy-benzenesulfonyl)-piperazine-2-carboxylic acid 4-(1,1-difluoro-propyl)-benzylamide]", "values": [{"measurement": "IC50", "setting": "[1]", "result": "< 100", "unit": "nM"}, {"measurement": "IC50", "setting": "[2]", "result": "< 100", "unit": "nM"}]}
{"smiles": "CCC(F)(F)c1ccc(CNC(=O)[C@H]2CN(c3cnc4c(n3)NC(=O)OC4)CCN2S(=O)(=O)c2ccc(OC(F)(F)F)cc2)cc1", "note": "[Example 616, (R)-4-(2-oxo-1,4-dihydro-2H-pyrazino[2,3-d][1,3]oxazin-7-yl)-1-(4-trifluoromethoxy-benzenesulfonyl)-piperazine-2-carboxylic acid 4-(1,1-difluoro-propyl)-benzylamide]", "values": [{"measurement": "IC50", "setting": "[1]", "result": "< 100", "unit": "nM"}, {"measurement": "IC50", "setting": "[2]", "result": "< 100", "unit": "nM"}]}
{"smiles": "CC(C)(C)c1ccc(CNC(=O)[C@H]2CN(c3cnc4cncnc4n3)CCN2S(=O)(=O)c2ccc(OC(F)(F)F)cc2)cc1", "note": "[Example 617, (R)-4-pteridin-7-yl-1-(4-trifluoromethoxy-benzenesulfonyl)-piperazine-2-carboxylic acid 4-tert-butyl-benzylamide]", "values": [{"measurement": "IC50", "setting": "[1]", "result": "< 100", "unit": "nM"}, {"measurement": "IC50", "setting": "[2]", "result": "< 100", "unit": "nM"}]}
